# Reference: patent US11596639B2, “Substituted indole Mcl-1 inhibitors” (Vanderbilt University, priority 2016, dated 2023)
# Read-outs that look alike come from different tables or passages of the source.
# What was measured:
# Mcl-1 = Mcl-1 (Homo sapiens (Human), UniProt Q07820); experiment: Fluorescence polarization anisotropy (FPA) competition assay, FITC-Bak or FITC-Bim BH3 peptide; assay type: binding; conditions: read-out: Ki for Inhibition of Mcl-1 by FPA assay
# [1] = tested on: H929 human cancer cell lines; experiment: Cellular viability / proliferation (Cell TiterGlo, 72 h); assay type: cell-based
# How it was run: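 1,000 cells/well, 10% FBS medium; compound added at 24 h, 2-fold dilutions from 50 μM top, DMSO <1% final. 72 h exposure, CellTiterGlo 30 min RT dark, luminescence read. IC50 by 4-parameter fit.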
# [2] = Homo sapiens, NCI-H929, 72 h, read-out: GI50 on cellular proliferation of H929 human cancer cell lines, H929 cells, 72 h, Cell TiterGlo, 10% FBS
# Sequence of Mcl-1 (Q07820 172-327): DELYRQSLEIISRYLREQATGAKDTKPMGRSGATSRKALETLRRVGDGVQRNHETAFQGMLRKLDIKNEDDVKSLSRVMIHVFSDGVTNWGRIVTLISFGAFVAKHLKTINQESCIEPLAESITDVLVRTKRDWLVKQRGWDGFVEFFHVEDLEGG
SMILES,Ki (Mcl-1) [nM],"GI50 [1, 2] [nM]","GI50 ([1]; H929 cells, 72 h, Cell TiterGlo, 10% FBS, read-out: GI50 on cellular proliferation of H929 human cancer cell lines) [nM]"
"Cc1cc(OCCCc2c3n(c4c(-c5c(C)nn(C)c5C)c(Cl)ccc24)[C@H](C)CN(c2cccc4c(C(=O)O)cccc24)C3=O)cc(C)c1Cl [Example 63, (R)-5-(7-Chloro-10-(3-(4-chloro-3,5-dimethylphenoxy)propyl)-4-methyl-1-oxo-6-(1,3,5-trimethyl-1H-pyrazol-4-yl)-3,4-dihydropyrazino[1,2-a]indol-2(1H)-yl)-1-naphthoic acid]",< 1,270,–
"Cc1cc(OCCCc2c3n(c4c(-c5c(C)nn(C)c5C)c(Cl)ccc24)CCCN(c2cccc4c(-c5nn[nH]n5)cn(C)c24)C3=O)cc(C)c1Cl [Example 15, 8-Chloro-11-[3-(4-chloro-3,5-dimethyl-phenoxy)propyl]-2-[1-methyl-3-(2H-tetrazol-5-yl)indol-7-yl]-7-(1,3,5-trimethylpyrazol-4-yl)-4,5-dihydro-3H-[1,4]diazepino[1,2-a]indol-1-one]",2.2,11000,–
"Cc1cc(OCCCc2c3n(c4c(-c5c(C)nn(C)c5C)c(Cl)ccc24)[C@H](C)CN(c2cc(C(=O)O)c4c(cnn4C)c2)C3=O)cc(C)c1Cl [Example 98, (R)-5-(7-chloro-10-(3-(4-chloro-3,5-dimethylphenoxy)propyl)-4-methyl-1-oxo-6-(1,3,5-trimethyl-1H-pyrazol-4-yl)-3,4-dihydropyrazino[1,2-a]indol-2(1H)-yl)-1-methyl-1H-indazole-7-carboxylic acid]",< 1,6600,–
"Cc1cc(OCCCc2c3n(c4c(-c5c(C)nn(C)c5C)c(Cl)ccc24)[C@H](C)CN(c2ccnc4ccc(-c5nn[nH]n5)cc24)C3=O)cc(C)c1Cl [Example 414, (R)-2-(6-(2H-Tetrazol-5-yl)quinolin-4-yl)-7-chloro-10-(3-(4-chloro-3,5-dimethylphenoxy)propyl)-4-methyl-6-(1,3,5-trimethyl-1H-pyrazol-4-yl)-3,4-dihydropyrazino[1,2-a]indol-1(2H)-one]",< 1,1400,–
"COCCn1cc(C(=O)O)c2c(N3C[C@@H](C)n4c(c(CCCOc5cc(C)c(Cl)c(C)c5)c5ccc(Cl)c(-c6c(C)nn(C)c6C)c54)C3=O)cccc21 [Example 181, 4-[(4R)-7-chloro-10-[3-(4-chloro-3,5-dimethyl-phenoxy)propyl]-4-methyl-1-oxo-6-(1,3,5-trimethylpyrazol-4-yl)-3,4-dihydropyrazino[1,2-a]indol-2-yl]-1-(2-methoxyethyl)indole-3-carboxylic acid]",1.4,2000,–
"Cc1ccnc(Cn2c(C(=O)O)cc3cccc(N4C[C@@H](C)n5c(c(CCCOc6cc(C)c(Cl)c(C)c6)c6ccc(Cl)c(-c7c(C)nn(C)c7C)c65)C4=O)c32)c1 [Example 371, (R)-7-(7-Chloro-10-(3-(4-chloro-3,5-dimethylphenoxy)propyl)-4-methyl-1-oxo-6-(1,3,5-trimethyl-1H-pyrazol-4-yl)-3,4-dihydropyrazino[1,2-a]indol-2(1H)-yl)-1-((4-methylpyridin-2-yl)methyl)-1H-indole-2-carboxylic acid]",< 1,300,–
"Cc1cc(OCCCc2c3n(c4c(-c5c(C)nn(C)c5C)c(Cl)ccc24)[C@H](C)CN(c2cn(C)c4ccccc24)C3=O)cc(C)c1Cl [Example 288, (R)-7-chloro-10-(3-(4-chloro-3,5-dimethylphenoxy)propyl)-4-methyl-2-(1-methyl-1H-indol-3-yl)-6-(1,3,5-trimethyl-1H-pyrazol-4-yl)-3,4-dihydropyrazino[1,2-a]indol-1(2H)-one]",3,8400,–
"Cc1cc(OCCCc2c3n(c4c(-c5c(C)nn(C)c5C)c(Cl)ccc24)[C@H](C)CN(c2cccc4c2C(=O)CC4)C3=O)cc(C)c1Cl [Example 195, (R)-7-Chloro-10-(3-(4-chloro-3,5-dimethylphenoxy)propyl)-4-methyl-2-(3-oxo-2,3-dihydro-1H-inden-4-yl)-6-(1,3,5-trimethyl-1H-pyrazol-4-yl)-3,4-dihydropyrazino[1,2-a]indol-1(2H)-one]",3.6,1800,–
"Cc1cc(OCCCc2c3n(c4c(-c5c(C)nn(C)c5C)c(Cl)ccc24)[C@H](C)CN(c2cccc4nc(C(=O)O)ccc24)C3=O)cc(C)c1Cl [Example 184, (R)-5-(7-chloro-10-(3-(4-chloro-3,5-dimethylphenoxy)propyl)-4-methyl-1-oxo-6-(1,3,5-trimethyl-1H-pyrazol-4-yl)-3,4-dihydropyrazino[1,2-a]indol-2(1H)-yl)quinoline-2-carboxylic acid]",< 1,770,–
"Cc1cc(OCCCc2c3n(c4c(-c5c(C)nn(C)c5C)c(Cl)ccc24)[C@H](C)CN(c2cn(C)c4cc(F)c(C(=O)O)cc24)C3=O)cc(C)c1Cl [Example 348, (P, R)-3-(7-Chloro-10-(3-(4-chloro-3,5-dimethylphenoxy)propyl)-4-methyl-1-oxo-6-(1,3,5-trimethyl-1H-pyrazol-4-yl)-3,4-dihydropyrazino[1,2-a]indol-2(1H)-yl)-6-fluoro-1-methyl-1H-indole-5-carboxylic acid]",1.8,–,1300
"COc1ccc(N2C[C@@H](C)n3c(c(CCCOc4cc(C)c(Cl)c(C)c4)c4ccc(Cl)c(-c5c(C)nn(C)c5C)c43)C2=O)c2c1cc(C(N)=O)n2Cc1ccccn1 [Example 466, (R)-7-(7-Chloro-10-(3-(4-chloro-3,5-dimethylphenoxy)propyl)-4-methyl-1-oxo-6-(1,3,5-trimethyl-1H-pyrazol-4-yl)-3,4-dihydropyrazino[1,2-a]indol-2(1H)-yl)-4-methoxy-1-(pyridin-2-ylmethyl)-1H-indole-2-carboxamide]",1.8,300,–
"Cc1cc(OCCCc2c3n(c4c(-c5c(C)nn(C)c5C)c(Cl)ccc24)[C@H](C)CN(c2cc(C(=O)O)cc4c2OCO4)C3=O)cc(C)c1Cl [Example 33, (R)-7-(7-chloro-10-(3-(4-chloro-3,5-dimethylphenoxy)propyl)-4-methyl-1-oxo-6-(1,3,5-trimethyl-1H-pyrazol-4-yl)-3,4-dihydropyrazino[1,2-a]indol-2(1H)-yl)benzo[d][1,3]dioxole-5-carboxylic acid]",< 1,650,–
"Cc1cc(OCCCc2c3n(c4c(-c5c(C)nn(C)c5C)c(Cl)ccc24)[C@H](C)CN(c2nccc4cc(C(N)=O)ccc24)C3=O)cc(C)c1Cl [Example 375, (R)-1-(7-Chloro-10-(3-(4-chloro-3,5-dimethylphenoxy)propyl)-4-methyl-1-oxo-6-(1,3,5-trimethyl-1H-pyrazol-4-yl)-3,4-dihydropyrazino[1,2-a]indol-2(1H)-yl)isoquinoline-6-carboxamide]",10,2500,–
"Cc1cc(OCCCc2c3n(c4c(-c5c(C)nn(C)c5C)c(Cl)ccc24)[C@H](C)CN(c2cc(C(=O)O)c4cc[nH]c4c2)C3=O)cc(C)c1Cl [Example 101, (R)-6-(7-chloro-10-(3-(4-chloro-3,5-dimethylphenoxy)propyl)-4-methyl-1-oxo-6-(1,3,5-trimethyl-1H-pyrazol-4-yl)-3,4-dihydropyrazino[1,2-a]indol-2(1H)-yl)-1H-indole-4-carboxylic acid]",< 1,2100,–
"Cc1cc(OCCCc2c3n(c4c(-c5c(C)ncnc5C)c(Cl)ccc24)[C@H](C)CN(c2cccc4cc(C(=O)O)n(C)c24)C3=O)cc(C)c1Cl [Example 238, 7-[(4R)-7-chloro-10-[3-(4-chloro-3,5-dimethyl-phenoxy)propyl]-6-(4,6-dimethylpyrimidin-5-yl)-4-methyl-1-oxo-3,4-dihydropyrazino[1,2-a]indol-2-yl]-1-methyl-indole-2-carboxylic acid]",< 1,340,–
"Cc1cc(OCCCc2c3n(c4c(-c5c(C)nn(C)c5C)c(Cl)ccc24)[C@H](C)CN(c2cn(C)c4ccc(-c5ccn(C)n5)cc24)C3=O)cc(C)c1Cl [Example 388, (R)-7-Chloro-10-(3-(4-chloro-3,5-dimethylphenoxy)propyl)-4-methyl-2-(1-methyl-5-(1-methyl-1H-pyrazol-3-yl)-1H-indol-3-yl)-6-(1,3,5-trimethyl-1H-pyrazol-4-yl)-3,4-dihydropyrazino[1,2-a]indol-1(2H)-one]",1.5,330,–
"Cc1cc(OCCCc2c3n(c4c(-c5c(C)nn(C)c5C)c(Cl)ccc24)[C@H](C)CN(c2cc(C(=O)O)c4ncccc4c2)C3=O)cc(C)c1Cl [Example 138, (R)-6-(7-chloro-10-(3-(4-chloro-3,5-dimethylphenoxy)propyl)-4-methyl-1-oxo-6-(1,3,5-trimethyl-1H-pyrazol-4-yl)-3,4-dihydropyrazino[1,2-a]indol-2(1H)-yl)quinoline-8-carboxylic acid]",2.2,4800,–
"Cc1cc(OCCCc2c3n(c4c(-c5c(C)nn(C)c5C)c(Cl)ccc24)[C@H](C)CN(c2cc(C(=O)O)c4ccccc4c2)C3=O)cc(C)c1Cl [Example 188, (R)-3-(7-Chloro-10-(3-(4-chloro-3,5-dimethylphenoxy)propyl)-4-methyl-1-oxo-6-(1,3,5-trimethyl-1H-pyrazol-4-yl)-3,4-dihydropyrazino[1,2-a]indol-2(1H)-yl)-1-naphthoic acid]",6.4,2700,–
"CCn1ncc2cc(C(=O)O)cc(N3CCCn4c(c(CCCOc5cc(C)c(Cl)c(C)c5)c5ccc(Cl)c(-c6c(C)nn(C)c6C)c54)C3=O)c21 [Example 122, 7-(8-Chloro-11-(3-(4-chloro-3,5-dimethylphenoxy)propyl)-1-oxo-7-(1,3,5-trimethyl-1H-pyrazol-4-yl)-4,5-dihydro-1H-[1,4]diazepino[1,2-a]indol-2(3H)-yl)-1-ethyl-1H-indazole-5-carboxylic acid]",2.2,11000,–
